In patent US9718790B2, “Triazine derivative and pharmaceutical composition having an analgesic activity comprising the same” (SHIONOGI & CO., LTD., priority 2010, dated 2017):

Molecular target: human P2X3 receptor (Homo sapiens (Human), UniProt P56373)
Experiment: Evaluation of human P2X3 receptor inhibitory activity (Fluo-3 calcium fluorescence, FDSS 3000, ATP stimulation);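 note: stimulus was 50 nM ATP with fluorescence followed for 3 min, and the response per well was peak post-ATP fluorescence divided by the reading at measurement start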
Format: cell-based
[1] = C6BU-1 cells stably expressing human P2X3 receptor, Fluo-3 fluorescence, FDSS 3000
[2] = human P2X3 receptor, Test Example 1
[3] = C6BU-1 cells stably expressing human P2X3 receptor

Chain of human P2X3 receptor (P56373 whole entry): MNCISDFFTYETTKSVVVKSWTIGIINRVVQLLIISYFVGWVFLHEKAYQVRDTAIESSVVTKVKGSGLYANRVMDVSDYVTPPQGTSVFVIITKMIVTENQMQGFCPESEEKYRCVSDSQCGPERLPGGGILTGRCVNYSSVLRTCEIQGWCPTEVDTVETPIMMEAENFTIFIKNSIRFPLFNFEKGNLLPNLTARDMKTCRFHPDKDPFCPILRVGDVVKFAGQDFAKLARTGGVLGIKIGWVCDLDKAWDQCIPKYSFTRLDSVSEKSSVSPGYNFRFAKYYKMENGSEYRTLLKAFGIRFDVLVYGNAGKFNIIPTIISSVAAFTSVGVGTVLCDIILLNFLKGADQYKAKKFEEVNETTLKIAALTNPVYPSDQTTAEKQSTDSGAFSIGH

Row | Compound | IC50 [2] [nM] | IC50 [3] [nM] | also measured
1 | C[C@@H](C(=O)O)[C@H](C)n1c(=O)[nH]/c(=N\c2ccc3sccc3c2)n(Cc2ccc(Cl)cc2)c1=O [Compound I-1590] | – | – | IC50 [1]: 998 nM
2 | CCn1c(=O)[nH]/c(=N\c2ccc(Oc3ccc(C(=O)O)nn3)cc2)n(Cc2ccc(Cl)cc2)c1=O [Compound I-2273] | 12 | – | –
3 | Cc1ccc(Cn2c(=O)n([C@@H](C)[C@@H](C)C(=O)O)c(=O)[nH]/c2=N\c2ccc3oc(C)cc3c2)cc1 [Compound I-1353] | – | 41 | –
4 | CC1CCC(Cn2c(=O)n(CCC(=O)O)c(=O)[nH]/c2=N\c2ccc(OC(C)C)c(F)c2)CC1 (centres unmarked) [Compound I-1750] | – | – | IC50 [1]: 21 nM
5 | CCn1c(=O)[nH]/c(=N\c2ccc(Oc3cncc(C)n3)cc2)n(Cc2ccc(Cl)cc2)c1=O [Compound I-2638] | 15 | – | –
6 | COC(=O)[C@@H](C)Cn1c(=O)[nH]/c(=N\c2cccc(CC(C)C)c2)n(Cc2ccc(C)cc2)c1=O [Compound I-1132] | – | – | IC50 [1]: 586 nM
7 | CCn1c(=O)[nH]/c(=N\c2ccc(Oc3cncc(C#N)c3)cc2)n(CC2CCC3(CC2)CC3)c1=O [Compound I-2179] | – | 3 | –
8 | COC(=O)c1cncc(Oc2ccc(/N=c3\[nH]c(=O)n(C4COC4)c(=O)n3Cc3ccc(Cl)cc3)cc2)c1 [Compound I-2332] | 218 | – | –
9 | COC(=O)[C@@H](C)Cn1c(=O)[nH]/c(=N\c2ccc(N3CCCCCC3)cc2)n(Cc2ccc(C)cc2)c1=O [Compound I-1234] | – | 230 | –
10 | Cc1ccc(Cn2c(=O)n(C[C@H](C)C(=O)O)c(=O)[nH]/c2=N\c2cccc(C3CCCC3)c2)cc1 [Compound I-1110] | – | – | IC50 [1]: 397 nM
11 | Cc1ccc(Cn2c(=O)n([C@@H](C)[C@@H](C)C(=O)O)c(=O)[nH]/c2=N\c2ccc(OC(C)C)c(C)c2)cc1 [Compound I-0930] | – | – | IC50 [1]: 30 nM
12 | COC(=O)[C@@H](C)Cn1c(=O)[nH]/c(=N\c2ccc(OCC3CC3)c(Cl)c2)n(Cc2ccc(C)cc2)c1=O [Compound I-0958] | – | – | IC50 [1]: 30 nM
13 | Cc1cnc(Oc2ccc(/N=c3\[nH]c(=O)n(CC(=O)NCCO)c(=O)n3Cc3ccc(Cl)cc3)cc2)s1 [Compound I-2649] | 6 | – | –
14 | CCOC(=O)c1csc(Oc2ccc(/N=c3\[nH]c(=O)n(CC)c(=O)n3Cc3ccc(Cl)cc3)cc2)n1 [Compound I-2191] | – | 5 | –
15 | CCc1cc2cc(/N=c3\[nH]c(=O)n(C[C@H](C)C(=O)OC)c(=O)n3Cc3ccc(Cl)cc3)ccc2s1 [Compound I-1947] | – | 353 | IC50 [1]: 677 nM
16 | CCOc1ccc(/N=c2\[nH]c(=O)n(C[C@@H](C)C(=O)O)c(=O)n2CC2CCCCC2)cc1Cl [Compound I-0648] | – | 336 | –
17 | Cc1ccc(Cn2c(=O)n(CCC(=O)O)c(=O)[nH]/c2=N\c2ccc(Oc3ccc(C)nc3)cc2)cc1 [Compound I-1356] | – | 48 | –
18 | Cc1nsc(Oc2ccc(/N=c3\[nH]c(=O)n(C[C@H](O)CO)c(=O)n3Cc3ccc(F)cc3)cc2F)n1 [Compound I-2707] | 7 | – | –
19 | Cn1c(=O)[nH]/c(=N\c2ccc(Oc3cccc(C(=O)O)n3)c(F)c2)n(Cc2ccc(Cl)cc2)c1=O [Compound I-2502] | 7 | – | –
20 | COC(=O)[C@@H](C)Cn1c(=O)[nH]/c(=N\c2ccc(OC(C)C)c(F)c2)n(Cc2ccc(F)cc2)c1=O [Compound I-0617] | – | 67 | –
21 | CCc1oc2ccc(/N=c3\[nH]c(=O)n(C[C@H]4COC(C)(C)O4)c(=O)n3Cc3ccc(Cl)cc3)cc2c1C [Compound I-1604] | – | – | IC50 [1]: 8 nM
22 | CCn1c(=O)[nH]/c(=N\c2ccc(Oc3cccc(C(=O)O)n3)c(F)c2)n(Cc2ccc(Cl)cc2)c1=O [Compound I-2498] | 3 | – | –
23 | COC(=O)CCn1c(=O)[nH]/c(=N\c2ccc(Oc3cccc(F)n3)cc2)n(Cc2ccc(Cl)cc2)c1=O [Compound I-2650] | 3 | – | –

Row | Compound | IC50 [2] [nM] | IC50 [3] [nM] | also measured
24 | CC(C)Oc1ccc(/N=c2\[nH]c(=O)n(C[C@H](O)CO)c(=O)n2Cc2ccc(Cl)cc2)cc1Cl [Compound I-0638, (R)-1-(4-chlorobenzyl)6-(3-chloro-4-isopropoxyphenylamino)-3-(2,3-dihydroxypropyl)-1,3,5-triazinane-2,4-dion] | – | 6 | –
25 | CCn1c(=O)[nH]/c(=N\c2ccc(Oc3cccc(CCC(=O)O)c3)cc2)n(Cc2ccc(Cl)cc2)c1=O [Compound I-2232] | 13 | – | –
26 | CCn1c(=O)[nH]/c(=N\c2ccc(Oc3cnc(C(=O)OC)cn3)cc2)n(Cc2ccc(Cl)cc2)c1=O [Compound I-2212] | – | 2 | –
27 | COC(=O)[C@H](C)Cn1c(=O)[nH]/c(=N\c2ccc(OC(C)C)c(C)c2)n(Cc2ccc(Cl)cc2)c1=O [Compound I-0589] | – | 6 | –
28 | CCn1c(=O)[nH]/c(=N\c2ccc(Oc3ccc(C#N)nn3)cc2)n(Cc2ccc(Cl)cc2)c1=O [Compound I-2601] | 12 | – | –
29 | CCn1c(=O)[nH]/c(=N\c2ccc(Oc3cccc(C(=O)O)n3)cc2)n(C[C@H]2CC[C@H](C)CC2)c1=O [Compound I-2499] | 5 | – | –
30 | Cc1ccc(Cn2c(=O)n([C@@H](C)[C@@H](C)C(=O)O)c(=O)[nH]/c2=N\c2ccc(OC(C)C)c(Br)c2)cc1 [Compound I-1334] | – | 11 | –
31 | Cc1cc(/N=c2\[nH]c(=O)n(Cc3ccc(C(=O)O)o3)c(=O)n2Cc2ccc(Cl)cc2)ccc1OC(C)C [Compound I-0710] | – | 19 | –
32 | Cc1ccc(Cn2c(=O)n(C[C@H](C)C(=O)O)c(=O)[nH]/c2=N\c2ccc(OCC(C)C)c(C)c2)cc1 [Compound I-0836] | 95 | – | –
33 | COC(=O)[C@@H](C)Cn1c(=O)[nH]/c(=N\c2ccc(OCC3CC3)cc2)n(Cc2ccc(Cl)cc2)c1=O [Compound I-0833] | 15 | – | –
34 | O=C(Cn1c(=O)[nH]/c(=N\c2ccc(Oc3ncccn3)cc2)n(Cc2ccc(Cl)cc2)c1=O)NCCO [Compound I-2688] | 18 | – | –
35 | CCOC(=O)Cn1c(=O)[nH]/c(=N\c2ccc(Oc3ccnnc3)cc2)n(Cc2ccc(Cl)cc2)c1=O [Compound I-2664] | 3 | – | –
36 | CC(C)Oc1ccc(/N=c2\[nH]c(=O)n(C3C[C@H]3C(=O)O)c(=O)n2Cc2ccc(Cl)cc2)cc1F (some centres unmarked) [Compound I-0674] | – | 126 | –
37 | Cc1ccc(Cn2c(=O)n([C@@H](C)[C@@H](C)C(=O)O)c(=O)[nH]/c2=N\c2ccc(CC(C)C)c(Cl)c2)cc1 [Compound I-1443] | – | 6 | –
38 | COC(=O)c1cncc(Oc2ccc(/N=c3\[nH]c(=O)n(C4CC4)c(=O)n3Cc3ccc(Cl)cc3)cc2)c1 [Compound I-2308] | 3 | – | –
39 | CCn1c(=O)[nH]/c(=N\c2ccc3nc(N(C)C)sc3c2)n(Cc2ccc(Cl)cc2)c1=O [Compound I-2267] | 331 | – | –
40 | Cc1ccc(Cn2c(=O)n(CCC(=O)O)c(=O)[nH]/c2=N\c2ccc(OC(C)C)c(C)c2)cc1 [Compound I-1158] | – | – | IC50 [1]: 63 nM
41 | COC(=O)[C@@H](C)Cn1c(=O)[nH]/c(=N\c2ccc(OCC(C)(C)C)cc2)n(Cc2ccc(C)cc2)c1=O [Compound I-1050] | – | – | IC50 [1]: 389 nM
42 | Cn1c(=O)[nH]/c(=N\c2ccc(Oc3cccc(C(N)=O)n3)cc2)n(Cc2ccc(Cl)cc2)c1=O [Compound I-2274] | 5 | – | –
43 | CCn1c(=O)[nH]/c(=N\c2ccc(Oc3cc(C(=O)OC)ncn3)cc2)n(Cc2ccc(Cl)cc2)c1=O [Compound I-2206] | – | 12 | –
44 | COC(=O)[C@@H](C)Cn1c(=O)[nH]/c(=N\c2ccc(CC3CCCC3)cc2)n(Cc2ccc(Cl)cc2)c1=O [Compound I-1097] | – | – | IC50 [1]: 141 nM
45 | Cc1ccc(Cn2c(=O)n(C[C@H](C)C(=O)O)c(=O)[nH]/c2=N\c2ccc(NS(C)(=O)=O)cc2)cc1 [Compound I-1417] | – | 207 | –
46 | CC(C)Oc1ccc(/N=c2\[nH]c(=O)n(C(C)(C)CC(=O)O)c(=O)n2Cc2ccc(Cl)cc2)cc1F [Compound I-0830] | 89 | – | –
